This assay addresses EGFR WT (Homo sapiens (Human), UniProt P00533). The assay can be described thus: ErbB enzyme assay (CisBio HTRF-KinEASE-TK), EGFR WT. Type of assay: biochemical. The conditions noted are these: ATP at Km (25 μM), 1 h incubation. As to the method: In vitro enzyme assays based on CisBio HTRF-KinEASE-TK technology were used to determine compound potencies. […]. Compounds were prepared as a three-fold serial dilution in DMSO and added to the assay to give the appropriate final concentration. After a 1 h incubation at ambient temperature, the reaction was quenched by adding 10 μL of 62.5 nM Sa-XL665 and 0.25×TK-Ab-Cryptate in HTRF detection buffer (all from CisBio, part of cat #62TKOPEC). After another 1 h incubation at ambient temperature, the extent of substrate phosphorylation was determined using a PerkinElmer EnVision multimode plate reader via time-resolved fluorescence dual wavelength detection. The percent of control (POC) was calculated using the ratio of emission at […] to the emission at 620 nm. One hundred POC was determined using DMSO only controls (no test compounds present) and zero POC was determined using pre-quenched controls reactions. A 4-parameter logistic equation was fit to the POC values as a function of the test compound concentration and the IC50 value was determined as the point where the curve crossed 50 POC.

Some results are limits rather than exact numbers.

EGFR WT, sequence (P00533 25-1210): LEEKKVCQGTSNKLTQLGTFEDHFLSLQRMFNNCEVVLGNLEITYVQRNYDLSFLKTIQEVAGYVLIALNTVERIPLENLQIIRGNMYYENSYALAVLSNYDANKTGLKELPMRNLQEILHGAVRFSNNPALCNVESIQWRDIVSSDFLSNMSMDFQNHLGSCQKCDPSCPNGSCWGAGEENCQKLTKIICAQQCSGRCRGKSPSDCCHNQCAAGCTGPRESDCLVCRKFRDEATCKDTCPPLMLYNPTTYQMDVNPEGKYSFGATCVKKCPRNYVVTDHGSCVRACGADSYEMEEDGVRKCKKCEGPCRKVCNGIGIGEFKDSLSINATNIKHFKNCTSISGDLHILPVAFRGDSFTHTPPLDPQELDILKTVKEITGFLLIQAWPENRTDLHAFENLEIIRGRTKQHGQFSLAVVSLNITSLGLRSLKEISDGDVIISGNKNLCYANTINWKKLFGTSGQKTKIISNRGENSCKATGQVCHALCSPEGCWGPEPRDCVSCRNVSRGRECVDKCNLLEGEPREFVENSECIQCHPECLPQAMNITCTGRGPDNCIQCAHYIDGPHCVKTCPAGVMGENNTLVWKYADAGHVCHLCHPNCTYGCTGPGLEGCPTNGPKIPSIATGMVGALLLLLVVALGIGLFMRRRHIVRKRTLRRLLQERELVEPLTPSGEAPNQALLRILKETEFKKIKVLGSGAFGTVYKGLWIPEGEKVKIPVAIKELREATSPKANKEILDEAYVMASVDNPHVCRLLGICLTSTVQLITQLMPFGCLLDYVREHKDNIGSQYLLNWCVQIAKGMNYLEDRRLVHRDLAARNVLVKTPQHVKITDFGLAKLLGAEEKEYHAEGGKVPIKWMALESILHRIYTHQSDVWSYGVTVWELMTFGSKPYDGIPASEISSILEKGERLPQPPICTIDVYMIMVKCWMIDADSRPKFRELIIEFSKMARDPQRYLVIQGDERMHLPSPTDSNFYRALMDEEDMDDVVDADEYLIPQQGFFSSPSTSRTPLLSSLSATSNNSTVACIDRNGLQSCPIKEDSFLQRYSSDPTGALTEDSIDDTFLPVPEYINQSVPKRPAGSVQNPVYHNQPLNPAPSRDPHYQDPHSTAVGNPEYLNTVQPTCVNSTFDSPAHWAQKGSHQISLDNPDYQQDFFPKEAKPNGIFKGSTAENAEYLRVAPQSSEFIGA

The compound `C=CC(=O)N[C@]1(C)CCCN(c2ccc3ncnc(Nc4ccc(Oc5ccc6c(c5)nnn6C)c(C)c4F)c3n2)C1` [Compound 303, (R)-N-(1-(4-((2-fluoro-3-methyl-4-((1-methyl-1H-benzo[d][1,2,3]triazol-5-yl)oxy)phenyl)amino)pyrido[3,2-d]pyrimidin-6-yl)-3-methylpiperidin-3-yl)acrylamide] gave a 50% inhibitory concentration (IC50) of less than 50 nM. As for `C=CC(=O)N1CCC(Oc2ncc3ncnc(Nc4ccc(Oc5ccc6c(c5)ncn6C)c(OC)c4)c3n2)CC1` [Compound 379, 1-(4-((8-((3-methoxy-4-((1-methyl-1H-benzo[d]imidazol-5-yl)oxy)phenyl)amino)pyrimido[5,4-d]pyrimidin-2-yl)oxy)piperidin-1-yl)prop-2-en-1-one], the figure is 100 to 500 nM. The value for `C=CC(=O)N1CCN(c2ccc3ncnc(Nc4ccc(Oc5cnc6ccnn6c5)c(C)c4)c3n2)CC1` [Compound 319, 1-(4-(4-((3-methyl-4-(pyrazolo[1,5-a]pyrimidin-6-yloxy)phenyl)amino)pyrido[3,2-d]pyrimidin-6-yl)piperazin-1-yl)prop-2-en-1-one] was less than 50 nM; that for `C=CC(=O)N1[C@H](C)CN(c2ncc3ncnc(Nc4ccc(Oc5ccc6c(c5)nnn6C)c(C)c4)c3n2)C[C@H]1C` [Compound 183, 1-((2R,6R)-2,6-dimethyl-4-(8-((3-methyl-4-((1-methyl-1H-benzo[d][1,2,3]triazol-5-yl)oxy)phenyl)amino)pyrimido[5,4-d]pyrimidin-2-yl)piperazin-1-yl)prop-2-en-1-one] was not below 1000 nM; that for `C=CC(=O)N1CCN(c2ncc3ncnc(Nc4ccc(Oc5cnc6c(c5)ncn6C)c(C)c4F)c3n2)CC1` [Compound 118, 1-(4-(8-((2-fluoro-3-methyl-4-((3-methyl-3H-imidazo[4,5-b]pyridin-6-yl)oxy)phenyl)amino)pyrimido [5,4-d]pyrimidin-2-y1)piperazin-1-yl)prop-2-en-1-one] was less than 50 nM. `C=CC(=O)N[C@@H]1CN(c2ccc3ncnc(Nc4ccc(Oc5ccc6c(c5)nnn6C)c(C)c4F)c3n2)CC[C@H]1C` [Compound 309, N-((3S,4R)-1-(4-((2-fluoro-3-methyl-4-((1-methyl-1H-benzo[d][1,2,3]triazol-5-yl)oxy)phenyl)amino)pyrido[3,2-d]pyrimidin-6-yl)-4-methylpiperidin-3-y1)acrylamide] had a half-inhibitory concentration (IC50) of 100 to 500 nM.

On to `Cc1cc(Nc2ncnc3ccc(N4CC[C@@H](C)N(C(=O)/C=C/C(F)F)CC4)nc23)ccc1Oc1ccn2ncnc2c1` [Compound 367, (R,E)-1-(4-(4-((4-([1,2,4]triazolo[1,5-a]pyridin-7-yloxy)-3-methylphenyl)amino)pyrido[3,2-d]pyrimidin-6-yl)-7-methyl-1,4-diazepan-1-y1)-4,4-difluorobut-2-en-1-one], for which the half-maximal inhibitory concentration (IC50) fell in the range of 500 to 1000 nM.

For the compound `C=C(F)C(=O)N1CCN(c2ncc3ncnc(Nc4ccc(Oc5ccc6c(c5)nnn6C)c(C)c4)c3n2)C[C@H]1CF` (single isomer, unassigned) [Compound 219], the IC50 is not below 1000 nM.

`C=CC(=O)N1CCN(c2ncc3ncnc(Nc4ccc(Oc5cc(F)c6c(c5)ncn6C)c(C)c4)c3n2)C[C@H]1CC` [Compound 163, (R)-1-(2-ethyl-4-(8-((4-((7-fluoro-1-methyl-1H-benzo[d]imidazol-5-yl)oxy)-3-methylphenyl)amino)pyrimido[5,4-d]pyrimidin-2-yl)piperazin-1-yl)prop-2-en-1-one]: the IC50 was 100 to 500 nM. Regarding `C=CC(=O)N1CCN(c2ncc3ncnc(Nc4ccc(Oc5cc(F)c6c(c5)nnn6C)c(C)c4F)c3n2)C[C@H]1C1CC1` [Compound 197, (R)-1-(2-cyclopropyl-4-(8-((2-fluoro-4-((7-fluoro-1-methyl-1H-benzo[d][1,2,3]triazol-5-yl)oxy)-3-methylphenyl)amino)pyrimido[5,4-d]pyrimidin-2-yl)piperazin-1-yl)prop-2-en-1-one], the concentration for half-maximal inhibition (IC50) was 100 to 500 nM.

Take `C=CC(=O)N1CCN(c2ncc3ncnc(Nc4ccc(Oc5cc(F)c6c(c5)ncn6C)c(C)c4)c3n2)CC[C@@H]1C` [Compound 179, (S)-1-(4-(8-((4-((7-fluoro-1-methyl-1H-benzo[d]imidazol-5-yl)oxy)-3-methylphenyl)amino)pyrimido[5,4-d]pyrimidin-2-y1)-7-methyl-1,4-diazepan-1-yl)prop-2-en-1-one]: the concentration for half-maximal inhibition (IC50) fell in the range of 100 to 500 nM. Regarding `C=CC(=O)N1C(C)(C)CC(c2ccc3ncnc(Nc4ccc(Oc5ccc6c(c5)nnn6C)c(C)c4)c3n2)CC1(C)C` [Compound 399, 1-(2,2,6,6-tetramethyl-4-(4-((3-methyl-4-((1-methyl-1H-benzo[d][1,2,3]triazol-5-yl)oxy)phenyl)amino)pyrido[3,2-d]pyrimidin-6-yl)piperidin-1-yl)prop-2-en-1-one], the IC50 is not below 1000 nM. `C=CC(=O)N1CCN(c2ncc3ncnc(Nc4ccc(Oc5cc(F)c6c(c5)nnn6C)c(C)c4F)c3n2)C[C@@H]1C1CC1` [Compound 192, (S)-1-(2-cyclopropyl-4-(8-((2-fluoro-4-((7-fluoro-1-methyl-1H-benzo[d][1,2,3]triazol-5-yl)oxy)-3-methylphenyl)amino)pyrimido[5,4-d]pyrimidin-2-y1)piperazin-1-yl)prop-2-en-1-one]: the IC50 fell in the range of 500 to 1000 nM. Consider `C=CC(=O)N1CCN(c2ncc3ncnc(Nc4ccc(Oc5ccc6c(c5)nnn6C(F)(F)F)c(C)c4)c3n2)C[C@H]1C` [Compound 195, (R)-1-(2-methyl-4-(8-((3-methyl-4-((1-(trifluoromethyl)-1H-benzo[d][1,2,3]triazol-5-yl)oxy)phenyl)amino)pyrimido[5,4-d]pyrimidin-2-yl)piperazin-1-yl)prop-2-en-1-one], for which the IC50 lay in the range of 100 to 500 nM. On to `C=CC(=O)N[C@@]1(C)CCN(c2ncc3ncnc(Nc4ccc(Oc5ccc6c(c5)nnn6C)c(C)c4)c3n2)C1` [Compound 145, (S)-N-(3-methyl-1-(8-((3-methyl-4-((1-methyl-1H-benzo[d][1,2,3]triazol-5-yl)oxy)phenyl)amino)pyrimido[5,4-d]pyrimidin-2-yl)pyrrolidin-3-yl)acrylamide], for which the IC50 lay within 100 to 500 nM. Consider `C=CC(=O)N1CCCN(c2ncc3ncnc(Nc4ccc(Oc5ccc6c(c5)nnn6C)c(C)c4)c3n2)C[C@@H]1C` [Compound 165, (S)-1-(2-methyl-4-(8-((3-methyl-4-((1-methyl-1H-benzo[d][1,2,3]triazol-5-yl)oxy)phenyl)amino)pyrimido[5,4-d]pyrimidin-2-y1)-1,4-diazepan-1-yl)prop-2-en-1-one], for which the 50% inhibitory concentration (IC50) was not below 1000 nM. In turn, `C=CC(=O)N1CCC2(CC1)CN(c1ncc3ncnc(Nc4ccc(Oc5ccc6c(c5)nnn6C)c(C)c4)c3n1)C2` [Compound 14, 1-(2-(8-((3-methyl-4-((1-methyl-1H-benzo[d][1,2,3]triazol-5-yl)oxy)phenyl)amino)pyrimido[5,4-d]pyrimidin-2-y1)-2,7-diazaspiro[3.5]nonan-7-yl)prop-2-en-1-one] had a half-inhibitory concentration (IC50) not below 1000 nM. Turning to `C=CC(=O)N[C@@H]1CCN(c2ccc3ncnc(Nc4ccc(Oc5ccc6c(c5)nnn6C)c(C)c4F)c3n2)C[C@@H]1F` [Compound 279, N-((3S,4R)-3-fluoro-1-(4-((2-fluoro-3-methyl-4-((1-methyl-1H-benzo[d][1,2,3]triazol-5-yl)oxy)phenyl)amino)pyrido[3,2-d]pyrimidin-6-yl)piperidin-4-yl)acrylamide], the IC50 was 500 to 1000 nM.

For the compound `C=CC(=O)N[C@H]1CN(c2ccc3ncnc(Nc4ccc(Oc5ccc6c(c5)nnn6C)c(C)c4F)c3n2)CC[C@H]1C` [Compound 341, N-((3R,4R)-1-(4-((2-fluoro-3-methyl-4-((1-methyl-1H-benzo[d][1,2,3]triazol-5-yl)oxy)phenyl)amino)pyrido[3,2-d]pyrimidin-6-yl)-4-methylpiperidin-3-yl)acrylamide], the IC50 is not below 1000 nM. Consider `C=CC(=O)N1CCC(Oc2ncc3ncnc(Nc4ccc(Oc5ccc6c(c5)ncn6C)c(C)c4)c3n2)C(F)(F)C1` (stereo not drawn) [Compound 393, 1-(3,3-difluoro-4-((8-((3-methyl-4-((1-methyl-1H-benzo[d]imidazol-5-yl)oxy)phenyl)amino)pyrimido[5,4-d]pyrimidin-2-y1)oxy)piperidin-1-yl)prop-2-en-1-one], for which the concentration for half-maximal inhibition (IC50) is less than 50 nM. Compound `C=CC(=O)N1CCN(c2ccc3ncnc(Nc4ccc(Oc5cc6ncnn6cn5)c(C)c4)c3n2)C[C@H]1C` [Compound 329, (R)-1-(4-(4-((4-([1,2,4]triazolo[1,5-c]pyrimidin-7-yloxy)-3-methylphenyl)amino)pyrido[3,2-d]pyrimidin-6-yl)-2-methylpiperazin-1-yl)prop-2-en-1-one] returned a concentration for half-maximal inhibition (IC50) of 50 to 100 nM. In the case of `C=CC(=O)N1CCN(c2ccc3ncnc(Nc4cc(C)c(Oc5ccn6ncnc6c5)cc4OC)c3n2)C[C@H]1C` [Compound 318, (R)-1-(4-(4-((4-([1,2,4]triazolo[1,5-a]pyridin-7-yloxy)-2-methoxy-5-methylphenyl)amino)pyrido[3,2-d]pyrimidin-6-yl)-2-methylpiperazin-1-yl)prop-2-en-1-one], the 50% inhibitory concentration (IC50) was less than 50 nM. As for `C=CC(=O)N1CCN(c2ncc3ncnc(Nc4ccc(Oc5ccc6c(c5)nnn6C)c(Cl)c4F)c3n2)CC1` [Compound 220, 1-(4-(8-((3-chloro-2-fluoro-4-((1-methyl-1H-benzo[d][1,2,3]triazol-5-yl)oxy)phenyl)amino)pyrimido[5,4-d]pyrimidin-2-yl)piperazin-1-yl)prop-2-en-1-one], the figure is less than 50 nM.

As to `C=CC(=O)N[C@@H]1CCCN(c2ncc3ncnc(Nc4ccc(Oc5ccc6c(c5)nnn6C)c(C)c4)c3n2)C1` [Compound 125, (R)-N-(1-(8-((3-methyl-4-((1-methyl-1H-benzo[d][1,2,3]triazol-5-yl)oxy)phenyl)amino)pyrimido [5,4-d]pyrimidin-2-y1)piperidin-3-yl)acrylamide], the concentration for half-maximal inhibition (IC50) is 100 to 500 nM.

The record behind these values is patent US20250129078A1, “ERBB2 INHIBITORS” (Cogent Biosciences, Inc., priority 2023, published 2025).
